test system: HEK293-GFP stable cells; assay: Effect of 4-HT on cellular toxicity (live cell population, TO-PRO-3 stain, flow cytometry); format: cell-based, human; conditions: 12 or 60 h of treatment with 1 μM 4-HT; untransfected or transfected HEK293 cells; FIG. 5
Protocol: FIG. 5. Effect of 4-HT on cellular toxicity. Untransfected HEK293-GFP stable cells, and cells transfected with intein-Cas9(5219) and sgRNA expression plasmids, were treated with or without 4-HT (1 μM). 12 h after transfection, the media was replaced with full serum media, with or without 4-HT (1 μM). Cells were thus exposed to 4-HT for 0, 12, or 60 h. The live cell population was determined by flow cytometry 60 h after transfection using TO-PRO-3 stain (Life Technologies). Error bars reflect the standard deviation of six technical replicates.
We assayed these Cas9:sgRNA combinations in human cells for their ability to modify the three on-target loci as well as 11 known off-target genomic sites (Table 3)^4,5,10,13. Cells were treated with or without 1 μM 4-HT during transfection, and after 12 h the media was replaced with fresh media lacking 4-HT. […] Genomic DNA was isolated 60 h post-transfection and analyzed by high-throughput DNA sequencing

Row | Substance | Cellular toxicity
1 | 4-hydroxytamoxifen [4-HT] | no cellular toxicity

test system: genomic EGFP locus; assay: Genomic EGFP disruption in HEK293-GFP stable cells (loss of GFP by flow cytometry); format: cell-based, human; conditions: FIG. 12

Row | Substance | Ability of β-estradiol to trigger Cas9 activity (genomic EGFP disruption)
2 | intein-Cas9(5219-G521R): intein-Cas9(S219) with point mutation G521R in the estrogen receptor ligand-binding domain (probably SEQ ID NO: 166) | eliminates the ability of β-estradiol to trigger Cas9 activity

test system: genomic EGFP locus; assay: as above; format: cell-based, human; conditions: +4-HT 2 hrs, then media replaced; Table 2
Protocol: HEK293-GFP stable cells were transfected with the Cas9 expression plasmid, a gRNA (targeting Emerald GFP; Guilinger et al., Nature Biotechnology (2014)), and iRFP670 (transfection control), using Lipofectamine 2000. Twelve hours after transfection, media, either containing 4-HT (1 μM) or without 4-HT, was added.
Five days after transfection, cells were trypsinized and analyzed on a flow cytometer. Cells lacking GFP indicated genome modification. Cas9 variants that induced minimal genome modification in the absence of 4-HT but induce significant genome modification in the presence of 4-HT were deemed small-molecule-regulated variants in this Example.
Additionally, a time course was performed in which incubation with 4-HT was limited to 2, 4, 8, 12 or 24 hours, after which point the media was replaced.
We genetically inserted the 4-HT-dependent intein at each of fifteen positions in Cas9 (Cys80, Ala127, Thr146, Ser219, Thr333, Thr519, Cys574, Thr622, Ser701, Ala728, Thr995, Ser1006, Ser1154, Ser1159, and Ser1274), chosen to distribute the location of the intein across the structural domains of Cas9^23 (FIG. 3b and Example 1). Because intein splicing leaves behind a single Cys residue, the intein was inserted in place of one Cas9 amino acid in each of the 15 candidate constructs. In addition to replacing natural Cys amino acids, we also favored replacing Ala, Ser, or Thr residues to minimize the likelihood that the resulting Cys point mutation resulting from protein splicing would disrupt Cas9 activity. The 15 intein-Cas9 candidates were expressed in HEK293-GFP cells together with a sgRNA that targets the genomic EGFP locus in these cells. Twelve hours post-transfection, cells were treated with or without 1 μM 4-HT. Five days post-transfection, cells were analyzed on a flow cytometer for loss of GFP expression from Cas9-mediated EGFP cleavage and subsequent non-homologous end joining.
Modification of genomic GFP. HEK293-GFP stable cells (GenTarget), which constitutively express Emerald GFP, served as the reporter cell line. Cells were maintained in “full serum media”: Dulbecco's Modified Eagle's Media plus GlutaMax (Life Technologies) with 10% (vol/vol) FBS and penicillin/streptomycin (1×, Amresco). 5×10^4 cells were plated on 48-well collagen-coated Biocoat plates (Becton Dickinson). 16-18 h after plating, cells were transfected with Lipofectamine 2000 (Life Technologies) according to the manufacturer's protocol. Briefly, 1.5 μL of Lipofectamine 2000 was used to transfect 650 ng of total plasmid: 500 ng Cas9 expression plasmid, 125 ng sgRNA expression plasmid, and 25 ng near-infrared iRFP670 expressing plasmid (Addgene plasmid 45457)^26. 12 h after transfection, the media was replaced with full serum media, with or without 4-HT (1 μM, Sigma-Aldrich T176). The media was replaced again 3-4 days after transfection. Five days after transfection, cells were trypsinized and resuspended in full serum media and analyzed on a C6 flow cytometer (Accuri) with a 488-nm laser excitation and 520-nm filter with a 20-nm band pass. Transfections and flow cytometry measurements were performed in triplicate.

Row | Substance | Cells without GFP (%)
3 | intein(Ala127)-Cas9: Cas9 with 37R3-2 intein replacing Ala127 (SEQ ID NO: 28) | 18.95%
4 | intein(Thr519)-Cas9: Cas9 with 37R3-2 intein replacing Thr519 (SEQ ID NO: 32) | 14.55%
5 | intein(Thr146)-Cas9: Cas9 with 37R3-2 intein replacing Thr146 (SEQ ID NO: 29) | 16.29%

same assay, conditions: +4-HT 4 hrs, then media replaced; Table 2

Row | Substance | Cells without GFP (%)
6 | intein(Ala127)-Cas9: Cas9 with 37R3-2 intein replacing Ala127 (SEQ ID NO: 28) | 18.57%
7 | intein(Thr519)-Cas9: Cas9 with 37R3-2 intein replacing Thr519 (SEQ ID NO: 32) | 13.98%
8 | intein(Thr146)-Cas9: Cas9 with 37R3-2 intein replacing Thr146 (SEQ ID NO: 29) | 15.07%

same assay, conditions: +4-HT 8 hrs, then media replaced; Table 2

Row | Substance | Cells without GFP (%)
9 | intein(Ala127)-Cas9: Cas9 with 37R3-2 intein replacing Ala127 (SEQ ID NO: 28) | 18.64%
10 | intein(Thr519)-Cas9: Cas9 with 37R3-2 intein replacing Thr519 (SEQ ID NO: 32) | 14.74%
11 | intein(Thr146)-Cas9: Cas9 with 37R3-2 intein replacing Thr146 (SEQ ID NO: 29) | 13.65%

same assay, conditions: +4-HT 12 hrs, then media replaced; Table 2

Row | Substance | Cells without GFP (%)
12 | intein(Ala127)-Cas9: Cas9 with 37R3-2 intein replacing Ala127 (SEQ ID NO: 28) | 18.35%
13 | intein(Thr519)-Cas9: Cas9 with 37R3-2 intein replacing Thr519 (SEQ ID NO: 32) | 13.93%
14 | intein(Thr146)-Cas9: Cas9 with 37R3-2 intein replacing Thr146 (SEQ ID NO: 29) | 14.44%

same assay, conditions: +4-HT 24 hrs, then media replaced; Table 2

Row | Substance | Cells without GFP (%)
15 | intein(Ala127)-Cas9: Cas9 with 37R3-2 intein replacing Ala127 (SEQ ID NO: 28) | 16.83%
16 | intein(Thr519)-Cas9: Cas9 with 37R3-2 intein replacing Thr519 (SEQ ID NO: 32) | 18.04%
17 | intein(Thr146)-Cas9: Cas9 with 37R3-2 intein replacing Thr146 (SEQ ID NO: 29) | 19.57%

same assay, conditions: +4-HT (1 μM, added 12 h after transfection); five days after transfection; Table 1

Row | Substance | Cells without GFP (%)
18 | intein(Ser1274)-Cas9: Cas9 with 37R3-2 intein replacing Ser1274 (SEQ ID NO: 41) | 5.00%
19 | intein(Ser1154)-Cas9: Cas9 with 37R3-2 intein replacing Ser1154 (SEQ ID NO: 39) | 41.94%
20 | intein(Ser1159)-Cas9: Cas9 with 37R3-2 intein replacing Ser1159 (SEQ ID NO: 40) | 13.21%
21 | intein(Ala127)-Cas9: Cas9 with 37R3-2 intein replacing Ala127 (SEQ ID NO: 28) | 19.73%
22 | intein(Thr995)-Cas9: Cas9 with 37R3-2 intein replacing Thr995 (SEQ ID NO: 37) | 21.39%
23 | intein(Thr519)-Cas9: Cas9 with 37R3-2 intein replacing Thr519 (SEQ ID NO: 32) | 25.96%
24 | intein(Ser701)-Cas9: Cas9 with 37R3-2 intein replacing Ser701 (SEQ ID NO: 35) | 9.56%
25 | intein(Ser1006)-Cas9: Cas9 with 37R3-2 intein replacing Ser1006 (SEQ ID NO: 38) | 12.61%
26 | intein(Cys80)-Cas9: Cas9 with 37R3-2 intein replacing Cys80 (SEQ ID NO: 27) | 4.96%
27 | intein(Thr622)-Cas9: Cas9 with 37R3-2 intein replacing Thr622 (SEQ ID NO: 34) | 3.96%
28 | intein(Ala728)-Cas9: Cas9 with 37R3-2 intein replacing Ala728 (SEQ ID NO: 36) | 41.89%
29 | intein(Thr146)-Cas9: Cas9 with 37R3-2 intein replacing Thr146 (SEQ ID NO: 29) | 21.60%
30 | intein(Thr333)-Cas9: Cas9 with 37R3-2 intein replacing Thr333 (SEQ ID NO: 31) | 9.17%

same assay, conditions: with or without 1 μM 4-HT; FIG. 3c

Row | Substance | Loss of GFP expression / nuclease activity, in words
31 | intein(Ser1274)-Cas9: Cas9 with 37R3-2 intein replacing Ser1274 (SEQ ID NO: 41) | lack of nuclease activity
32 | intein(Ser1154)-Cas9: Cas9 with 37R3-2 intein replacing Ser1154 (SEQ ID NO: 39) | high DNA modification rates both in the presence and absence of 4-HT
33 | intein(Ser1159)-Cas9: Cas9 with 37R3-2 intein replacing Ser1159 (SEQ ID NO: 40) | 4-HT-dependent loss of GFP expression
34 | intein(Ala127)-Cas9: Cas9 with 37R3-2 intein replacing Ala127 (SEQ ID NO: 28) | 4-HT-dependent loss of GFP expression
35 | intein(Thr995)-Cas9: Cas9 with 37R3-2 intein replacing Thr995 (SEQ ID NO: 37) | high DNA modification rates both in the presence and absence of 4-HT
36 | intein(Thr519)-Cas9: Cas9 with 37R3-2 intein replacing Thr519 (SEQ ID NO: 32) | 4-HT-dependent loss of GFP expression
37 | intein(Ser701)-Cas9: Cas9 with 37R3-2 intein replacing Ser701 (SEQ ID NO: 35) | lack of nuclease activity
38 | intein(Ser1006)-Cas9: Cas9 with 37R3-2 intein replacing Ser1006 (SEQ ID NO: 38) | 4-HT-dependent loss of GFP expression
39 | intein(Cys80)-Cas9: Cas9 with 37R3-2 intein replacing Cys80 (SEQ ID NO: 27) | lack of nuclease activity
40 | intein(Thr622)-Cas9: Cas9 with 37R3-2 intein replacing Thr622 (SEQ ID NO: 34) | lack of nuclease activity
41 | intein(Ala728)-Cas9: Cas9 with 37R3-2 intein replacing Ala728 (SEQ ID NO: 36) | high DNA modification rates both in the presence and absence of 4-HT
42 | intein(Thr146)-Cas9: Cas9 with 37R3-2 intein replacing Thr146 (SEQ ID NO: 29) | 4-HT-dependent loss of GFP expression
43 | intein(Thr333)-Cas9: Cas9 with 37R3-2 intein replacing Thr333 (SEQ ID NO: 31) | 4-HT-dependent loss of GFP expression

same assay, conditions: −4-HT; five days after transfection; Table 1

Row | Substance | Cells without GFP (%)
44 | intein(Ser1274)-Cas9: Cas9 with 37R3-2 intein replacing Ser1274 (SEQ ID NO: 41) | 3.08%
45 | intein(Ser1154)-Cas9: Cas9 with 37R3-2 intein replacing Ser1154 (SEQ ID NO: 39) | 21.14%
46 | intein(Ser1159)-Cas9: Cas9 with 37R3-2 intein replacing Ser1159 (SEQ ID NO: 40) | 5.65%
47 | intein(Ala127)-Cas9: Cas9 with 37R3-2 intein replacing Ala127 (SEQ ID NO: 28) | 7.97%
48 | intein(Thr995)-Cas9: Cas9 with 37R3-2 intein replacing Thr995 (SEQ ID NO: 37) | 14.95%
49 | intein(Thr519)-Cas9: Cas9 with 37R3-2 intein replacing Thr519 (SEQ ID NO: 32) | 9.49%
50 | intein(Ser701)-Cas9: Cas9 with 37R3-2 intein replacing Ser701 (SEQ ID NO: 35) | 6.54%
51 | intein(Ser1006)-Cas9: Cas9 with 37R3-2 intein replacing Ser1006 (SEQ ID NO: 38) | 6.80%
52 | intein(Cys80)-Cas9: Cas9 with 37R3-2 intein replacing Cys80 (SEQ ID NO: 27) | 7.08%
53 | intein(Thr622)-Cas9: Cas9 with 37R3-2 intein replacing Thr622 (SEQ ID NO: 34) | 5.67%
54 | intein(Ala728)-Cas9: Cas9 with 37R3-2 intein replacing Ala728 (SEQ ID NO: 36) | 20.82%
55 | intein(Thr146)-Cas9: Cas9 with 37R3-2 intein replacing Thr146 (SEQ ID NO: 29) | 8.77%
56 | intein(Thr333)-Cas9: Cas9 with 37R3-2 intein replacing Thr333 (SEQ ID NO: 31) | 4.96%

same assay, conditions: −4-HT; time course; Table 2

Row | Substance | Cells without GFP (%)
57 | intein(Ala127)-Cas9: Cas9 with 37R3-2 intein replacing Ala127 (SEQ ID NO: 28) | 5.03%
58 | intein(Thr519)-Cas9: Cas9 with 37R3-2 intein replacing Thr519 (SEQ ID NO: 32) | 4.29%
59 | intein(Thr146)-Cas9: Cas9 with 37R3-2 intein replacing Thr146 (SEQ ID NO: 29) | 4.28%

Source: patent US11578343B2, “CAS9 proteins including ligand-dependent inteins” (President and Fellows of Harvard College, priority 2014, dated 2023)
